Assay results: ChEMBL document CHEMBL4007400, “Role of Reactive Oxygen Species (ROS) in Therapeutics and Drug Resistance in Cancer and Bacteria” (J Med Chem, 2017)

Molecular target: T1, 4,4'-diapophytoene synthase (Staphylococcus aureus, UniProt A9JQL9)
T1 sequence (A9JQL9 whole entry): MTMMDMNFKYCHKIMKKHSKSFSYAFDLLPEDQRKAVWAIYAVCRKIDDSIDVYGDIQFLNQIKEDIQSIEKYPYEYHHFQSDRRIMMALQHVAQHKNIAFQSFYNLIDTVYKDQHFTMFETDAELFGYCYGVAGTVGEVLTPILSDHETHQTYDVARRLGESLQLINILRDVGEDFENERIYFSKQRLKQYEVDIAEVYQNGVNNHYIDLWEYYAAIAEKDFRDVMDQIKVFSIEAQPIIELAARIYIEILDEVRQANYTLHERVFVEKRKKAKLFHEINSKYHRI
Test: Inhibition of Staphylococcus aureus ATCC 27659 histidine-tagged full length CrtM expressed in Escherichia coli BL21(DE3) cells assessed as decrease in staphyloxanthin formation after 30 mins by continous spectrophotometric method

O=P(O)(O)C(CCCc1cccc(Oc2ccccc2)c1)S(=O)(=O)O (stereo unspecified)
Ki: 1.5 nM
